Data published in ChEMBL document CHEMBL3272271, “Folate antagonists. 13. 2,4-Diamino-6-](alpha,alpha,alpha-trifluoro-m-tolyl)thio]quinazoline and related 2,4-diamino-6-[(phenyl- and naphthyl)thio]quinazolines, a unique class of antimetabolites with extraordinary antimalarial and antibacterial effects” (J Med Chem, 1978).
Values after ≈ are worked out from the molar mass of the structure shown. Active and inactive are the calls of the source. The calls are words filed in the database; no cut-off is given here.

Assays:
Plasmodium gallinaceum [1] = test: Antimalarial activity against trophozoite-induced Plasmodium gallinaceum infected in white leghorn chicken assessed as increase in mean survival days of host at 0.63 mg/kg, sc administered 72 hrs after infection relative to control; type: functional; settings: route subcutaneous
Plasmodium berghei [2] = test: Antimalarial activity against trophozoite-induced Plasmodium berghei infected in mouse assessed as daily dose required to suppression of 90% parasite infection administered with diet for 6 days; type: functional
Plasmodium berghei [3] = test: Antimalarial activity against Plasmodium berghei infected in mouse assessed as increase in mean survival days of host at 40 mg/kg, sc administered 72 hrs after infection relative to control; type: functional; settings: route subcutaneous
Plasmodium gallinaceum [4] = test: Antimalarial activity against trophozoite-induced Plasmodium gallinaceum infected in white leghorn chicken assessed as increase in mean survival days of host at 80 mg/kg, sc administered 72 hrs after infection relative to control; type: functional; settings: route subcutaneous
Plasmodium gallinaceum [5] = test: Antimalarial activity against trophozoite-induced Plasmodium gallinaceum infected in white leghorn chicken assessed as increase in mean survival days of host at 10 mg/kg, sc administered 72 hrs after infection relative to control; type: functional; settings: route subcutaneous
Enterococcus faecalis = test: Antibacterial activity against Streptococcus faecalis MGH-2 by gradient plate test; type: functional
Plasmodium gallinaceum [6] = test: Antimalarial activity against trophozoite-induced Plasmodium gallinaceum infected in white leghorn chicken assessed as increase in mean survival days of host at 2.5 mg/kg, sc administered 72 hrs after infection relative to control; type: functional; settings: route subcutaneous
Plasmodium berghei [7] = test: Antimalarial activity against Plasmodium berghei infected in mouse assessed as disease cure from parasite infection at 80 mg/kg, sc administered 72 hrs after infection; type: functional, organism-based; design: dose 80 mg/kg
Plasmodium berghei [8] = test: Antimalarial activity against Plasmodium berghei infected in mouse assessed as increase in mean survival days of host at 5 mg/kg, sc administered 72 hrs after infection relative to control; type: functional; settings: route subcutaneous
Staphylococcus aureus [9] = test: Antibacterial activity against drug-resistant Staphylococcus aureus S18713 by gradient plate test; type: functional
Plasmodium berghei [10] = test: Antimalarial activity against Plasmodium berghei infected in mouse assessed as disease cure from parasite infection at 40 mg/kg, sc administered 72 hrs after infection; type: functional, organism-based; design: dose 40 mg/kg
Plasmodium gallinaceum [11] = test: Antimalarial activity against trophozoite-induced Plasmodium gallinaceum infected in white leghorn chicken assessed as increase in mean survival days of host at 160 mg/kg, sc administered 72 hrs after infection relative to control; type: functional; settings: route subcutaneous
Plasmodium gallinaceum [12] = test: Antimalarial activity against trophozoite-induced Plasmodium gallinaceum infected in white leghorn chicken assessed as increase in mean survival days of host at 1.25 mg/kg, sc administered 72 hrs after infection relative to control; type: functional; settings: route subcutaneous
Plasmodium berghei [13] = test: Antimalarial activity against Plasmodium berghei infected in mouse assessed as increase in mean survival days of host at 1.25 mg/kg, sc administered 72 hrs after infection relative to control; type: functional; settings: route subcutaneous
Plasmodium gallinaceum [14] = test: Antimalarial activity against trophozoite-induced Plasmodium gallinaceum infected in white leghorn chicken assessed as increase in mean survival days of host at 20 mg/kg, sc administered 72 hrs after infection relative to control; type: functional; settings: route subcutaneous
Plasmodium berghei [15] = test: Antimalarial activity against Plasmodium berghei infected in mouse assessed as increase in mean survival days of host at 10 mg/kg, sc administered 72 hrs after infection relative to control; type: functional; settings: route subcutaneous
Staphylococcus aureus [16] = test: Antibacterial activity against Staphylococcus aureus UC-96 by gradient plate test; type: functional
Plasmodium berghei [17] = test: Antimalarial activity against Plasmodium berghei infected in mouse assessed as increase in mean survival days of host at 2.5 mg/kg, sc administered 72 hrs after infection relative to control; type: functional; settings: route subcutaneous
Plasmodium berghei [18] = test: Antimalarial activity against Plasmodium berghei infected in mouse assessed as increase in mean survival days of host at 20 mg/kg, sc administered 72 hrs after infection relative to control; type: functional; settings: route subcutaneous
Plasmodium berghei [19] = test: Antimalarial activity against Plasmodium berghei infected in mouse assessed as disease cure from parasite infection at 640 mg/kg, sc administered 72 hrs after infection; type: functional, organism-based; design: dose 640 mg/kg
Mus musculus = test: Toxicity in Plasmodium berghei infected mouse assessed as mortality at 640 mg/kg, sc administered 72 hrs after infection measured after 2 to 5 days; type: organism-based; design: dose 640 mg/kg, route subcutaneous; settings: in vivo
Pseudomonas aeruginosa = test: Antibacterial activity against Pseudomonas aeruginosa 28 by gradient plate test; type: functional
Plasmodium gallinaceum [20] = test: Antimalarial activity against trophozoite-induced Plasmodium gallinaceum infected in white leghorn chicken assessed as disease cure from parasite infection at 320 mg/kg, sc administered 72 hrs after infection; type: functional, organism-based; design: dose 320 mg/kg
Plasmodium berghei [21] = test: Antimalarial activity against Plasmodium berghei infected in mouse assessed as disease cure from parasite infection at 320 mg/kg, sc administered 72 hrs after infection; type: functional, organism-based; design: dose 320 mg/kg
Plasmodium gallinaceum [22] = test: Antimalarial activity against trophozoite-induced Plasmodium gallinaceum infected in white leghorn chicken assessed as increase in mean survival days of host at 5 mg/kg, sc administered 72 hrs after infection relative to control; type: functional; settings: route subcutaneous
Plasmodium gallinaceum [23] = test: Antimalarial activity against trophozoite-induced Plasmodium gallinaceum infected in white leghorn chicken assessed as increase in mean survival days of host at 320 mg/kg, sc administered 72 hrs after infection relative to control; type: functional; settings: route subcutaneous
Shigella sonnei = test: Antibacterial activity against Shigella sonnei C-10 by gradient plate test; type: functional
Escherichia coli = test: Antibacterial activity against Escherichia coli Vogel by gradient plate test; type: functional
Plasmodium gallinaceum [24] = test: Antimalarial activity against trophozoite-induced Plasmodium gallinaceum infected in white leghorn chicken assessed as increase in mean survival days of host at 40 mg/kg, sc administered 72 hrs after infection relative to control; type: functional; settings: route subcutaneous
Plasmodium berghei [25] = test: Antimalarial activity against Plasmodium berghei infected in mouse assessed as disease cure from parasite infection at 160 mg/kg, sc administered 72 hrs after infection; type: functional, organism-based; design: dose 160 mg/kg
Plasmodium gallinaceum [26] = test: Antimalarial activity against trophozoite-induced Plasmodium gallinaceum infected in white leghorn chicken assessed as disease cure from parasite infection at 160 mg/kg, sc administered 72 hrs after infection; type: functional, organism-based; design: dose 160 mg/kg
Plasmodium berghei [27] = test: Ratio of quinine hydrochloride SD90 to compound SD90 for trophozoite-induced Plasmodium berghei infected in mouse assessed as daily dose required to suppression of 90% parasite infection administered with diet for 6 days; type: functional
Plasmodium gallinaceum [28] = test: Antimalarial activity against sporozoite-induced Plasmodium gallinaceum infected in white leghorn chicken assessed as disease cure from parasite infection at 320 mg/kg, sc administered 72 hrs after infection; type: functional, organism-based; design: dose 320 mg/kg
Plasmodium gallinaceum [29] = test: Antimalarial activity against sporozoite-induced Plasmodium gallinaceum infected in white leghorn chicken assessed as disease cure from parasite infection at 80 mg/kg, sc administered 72 hrs after infection; type: functional, organism-based; design: dose 80 mg/kg
Plasmodium falciparum [30] = test: Antimalarial activity against chloroquine-susceptible, pyrimethamine-resistant Plasmodium falciparum Malayan Camp infected in Aotus trivirgatus owl monkey model assessed as cure from parasite infection at 0.39 to 5 mg/kg, po qd for 7 days relative to control; type: functional; settings: dose mg/kg 0.39-5
Plasmodium falciparum [31] = test: Antimalarial activity against pyrimethamine-sensitive Plasmodium falciparum Vietnam Oak Knoll infected in Aotus trivirgatus owl monkey model assessed as cure from parasite infection at 0.098 to 1.56 mg/kg, po qd for 7 days relative to control; type: functional; settings: dose mg/kg 0.098-1.56
Plasmodium falciparum [32] = test: Antimalarial activity against chloroquine-susceptible, pyrimethamine-resistant Plasmodium falciparum Malayan Camp infected in Aotus trivirgatus owl monkey model assessed as cure from parasite infection at >2.5 mg/kg, po qd for 7 days relative to control; type: functional
Plasmodium gallinaceum [33] = test: Antimalarial activity against sporozoite-induced Plasmodium gallinaceum infected in white leghorn chicken assessed as increase in mean survival days of host at 10 mg/kg, sc administered 72 hrs after infection relative to control; type: functional; settings: route subcutaneous
Plasmodium gallinaceum [34] = test: Antimalarial activity against sporozoite-induced Plasmodium gallinaceum infected in white leghorn chicken assessed as disease cure from parasite infection at 160 mg/kg, sc administered 72 hrs after infection; type: functional, organism-based; design: dose 160 mg/kg
Plasmodium falciparum [35] = test: Antimalarial activity against pyrimethamine-sensitive Plasmodium falciparum Vietnam Oak Knoll infected in Aotus trivirgatus owl monkey model assessed as cure from parasite infection at 0.6 mg/kg, po qd for 7 days relative to control; type: functional
Plasmodium gallinaceum [36] = test: Antimalarial activity against sporozoite-induced Plasmodium gallinaceum infected in white leghorn chicken assessed as disease cure from parasite infection at 10 mg/kg, sc administered 72 hrs after infection; type: functional, organism-based; design: dose 10 mg/kg
Plasmodium gallinaceum [37] = test: Antimalarial activity against sporozoite-induced Plasmodium gallinaceum infected in white leghorn chicken assessed as disease cure from parasite infection at 40 mg/kg, sc administered 72 hrs after infection; type: functional, organism-based; design: dose 40 mg/kg
Plasmodium gallinaceum [38] = test: Antimalarial activity against sporozoite-induced Plasmodium gallinaceum infected in white leghorn chicken assessed as disease cure from parasite infection at 20 mg/kg, sc administered 72 hrs after infection; type: functional, organism-based; design: dose 20 mg/kg
Plasmodium berghei [39] = test: Antimalarial activity against Plasmodium berghei infected in mouse assessed as disease cure from parasite infection at 20 mg/kg, sc administered 72 hrs after infection; type: functional, organism-based; design: dose 20 mg/kg
Plasmodium berghei [40] = test: Antimalarial activity against cycloguanil-resistant Plasmodium berghei assessed as drug resistance; type: functional, organism-based
Plasmodium berghei [41] = test: Antimalarial activity against chloroquine-resistant Plasmodium berghei assessed as drug resistance; type: functional, organism-based

Row | Structure (SMILES) | SD90 (Plasmodium berghei [2]) [mg/kg/day] | MST (Plasmodium berghei [3]) [days] | MST (Plasmodium gallinaceum [4]) [days] | MST (Plasmodium gallinaceum [5]) [days] | MIC (Enterococcus faecalis) [µg/mL] | Activity (Plasmodium berghei [7]) | MST (Plasmodium berghei [8]) [days] | MIC (Staphylococcus aureus [9]) [µg/mL] | Activity (Plasmodium berghei [10]) | MST (Plasmodium gallinaceum [11]) [days] | MST (Plasmodium berghei [13]) [days] | MST (Plasmodium gallinaceum [14]) [days] | MST (Plasmodium berghei [15]) [days] | MIC (Staphylococcus aureus [16]) [µg/mL] | MST (Plasmodium berghei [17]) [days] | MST (Plasmodium berghei [18]) [days] | Activity (Plasmodium berghei [19]) | MIC (Pseudomonas aeruginosa) [µg/mL] | Activity (Plasmodium berghei [21]) | Activity (Plasmodium berghei [25]) | other results
1 | Cc1ccccc1Sc1ccc2nc(N)nc(N)c2c1 | 4.1 | 17 | 12 | 6.6 | < 0.25 | Active | 7.3 | < 0.25 | Active | 17 | 1.1 | 7.6 | 9.9 | < 0.25 | 5.5 | 10.5 | Active | > 25 | Active | Active | MST (Plasmodium gallinaceum [1]): 0 days; MST (Plasmodium gallinaceum [6]): 0 days; MST (Plasmodium gallinaceum [12]): 0 days; Activity (Mus musculus): Toxic; Activity (Plasmodium gallinaceum [20]): Active; MST (Plasmodium gallinaceum [22]): 2.4 days; MST (Plasmodium gallinaceum [23]): 16 days; MIC (Shigella sonnei): 1 µg/mL (≈ 3.54 µM); MIC (Escherichia coli): < 0.25 µg/mL; MST (Plasmodium gallinaceum [24]): 11 days; Activity (Plasmodium gallinaceum [26]): Active; Ratio (Plasmodium berghei [27]): 18
2 | Nc1nc(N)c2cc(Sc3cccc(C(F)(F)F)c3)ccc2n1 [WR-159412] | – | 14.9 | – | – | – | Active | 8.7 | – | Active | 15.4 | 0.5 | – | 9.1 | – | 2.7 | 12.7 | Active | – | Active | Active | Activity (Plasmodium gallinaceum [28]): Active; Activity (Plasmodium gallinaceum [29]): Active; Activity (Plasmodium falciparum [30]): >50%; Activity (Plasmodium falciparum [31]): >50%; Activity (Plasmodium falciparum [32]): >50%; MST (Plasmodium gallinaceum [33]): 7.3 days; Activity (Plasmodium gallinaceum [34]): Active; Activity (Plasmodium falciparum [35]): >50%; Activity (Plasmodium gallinaceum [36]): Active; Activity (Plasmodium gallinaceum [37]): Active; Activity (Plasmodium gallinaceum [38]): Active
3 | Nc1nc(N)c2cc(Sc3ccc4ccccc4c3)ccc2n1 | 0.08 | – | 16.2 | 6.2 | < 0.25 | Active | 6.5 | < 0.25 | Active | 15 | 2.9 | 7.8 | 11.3 | < 0.25 | 5.3 | – | Active | > 25 | Active | Active | Activity (Plasmodium gallinaceum [28]): Active; Activity (Plasmodium gallinaceum [29]): Active; Activity (Plasmodium falciparum [30]): >50%; Activity (Plasmodium falciparum [31]): >50%; Activity (Plasmodium falciparum [32]): >50%; Activity (Plasmodium gallinaceum [34]): Active; Activity (Plasmodium falciparum [35]): >50%; Activity (Plasmodium gallinaceum [20]): Active; MST (Plasmodium gallinaceum [23]): 16 days; MIC (Shigella sonnei): 2.5 µg/mL (≈ 7.85 µM); MIC (Escherichia coli): < 0.25 µg/mL; MST (Plasmodium gallinaceum [24]): 12.4 days; Activity (Plasmodium berghei [39]): Active; Activity (Plasmodium berghei [40]): Active; Activity (Plasmodium berghei [41]): inactive; Activity (Plasmodium gallinaceum [26]): Active; Ratio (Plasmodium berghei [27]): 880
